Measurements published in US6037335A, “Phosphonate-nucleotide ester derivatives” (Mitsubishi Chemical Corporation, priority 1993, dated 2000).
Where two headings read alike, the source gives them in different places.

Key:
HBV [1] = experiment: Inhibition of HBV growth (HBV-DNA synthesis in HB611 cells, southern blotting); format: cell-based; set-up: dose or concentration left out as unconfirmed; details: Hepatitis B virus, 408 h, DNA recovered day 17
Description: (§1) HB611 cells (recombinant human lever cancer cell producing HBV, 2×10^4) was incubated on Dulbecco ME medium containing bovine fetal serum, streptomycin ([…]), penicillin (100 IU/ml) and G-418 (0.2 mg/ml) at 37° C. On the 2nd and 5th days of cultivation, the medium was changed, then the media containing specimens at final concentration of 10 mM were substituted on the 8th, 11th and 14th days. On 17 days of cultivation, DNA of the cell was recovered. The amount of HBV-DNA was measured by southern blotting, and inhibition of HBV-DNA synthesis in the cell was determined. In addition, the concentration of the compound required for 50% death of the HB611 cells was determined.

[2] = Concentration required for 50% death of HB611 cells; format: cell-based; details: human, read-out: LD50 of HB611 cell
Description: as §1

HBV [3] = experiment: Inhibition of HBV growth in mouse serum upon oral administration (HB611 cells cultured with 5% serum); format: in vivo; details: Hepatitis B virus, HB611, 0.5 h, single oral dose 0.3 g/kg, serum 30 minutes after administration, 5% serum in medium, read-out: HBV-DNA Synthesis Inhibition
Description: (§2) Inhibition of HBV growth in rat or mouse serum upon oral administration
(§3) Groups of rats (3 rats per group) were received single oral dose of specimen (1 g/kg or 0.5 g/kg), bled at 1 hour after administration and serum was prepared. Separately, groups of mice (3 mice per group) were received single oral dose of specimen (0.3 g/kg), bled at 30 minutes after administration and serum was prepared.
(§4) HB611 cells (2×10^4) were incubated on Dulbecco ME medium containing 10% bovine fetal serum, streptomycin ([…]), penicillin (100 IU/ml) and G-418 (0.2 mg/ml) at 37° C. On the 2nd and 5th days of cultivation, the medium was changed, then substituted with a medium containing 5% of the above serum (rat or mouse serum after oral administration of the specimen) on the 8th, 11th and 14th day, and DNA of the cell was recovered on the 17th days of cultivation. The amount of HBV-DNA was measured by southern blotting, and intracellular HBV-DNA synthesis inhibition was determined. For reference, the same experiment was conducted on PMEA.

HBV [4] = experiment: Inhibition of HBV growth in rat serum upon oral administration (HB611 cells cultured with 5% serum); format: in vivo; details: Hepatitis B virus, read-out: HBV-DNA Synthesis Inhibition; for inhibition at 500 mg/kg: single oral dose 0.5 g/kg
Description: as §2, §3, §4

[5] = tested on: herpes simplex viruses type-I (HSV-1); details: literature; cited from earlier work
[6] = tested on: herpes simplex viruses type-II (HSV-2); details: literature; cited from earlier work
[7] = tested on: human immunodeficiency virus (HIV); details: literature; cited from earlier work
hepatitis B virus = details: literature; cited from earlier work
[8] = HB611, Rat, serum 1 hour after administration, 5% serum in medium
[9] = HB611, Rat, single oral dose 1 g/kg, serum 1 hour after administration, 5% serum in medium

SMILES: Nc1nc2c(ncn2CCOCP(=O)(OCC(F)(F)F)OCC(F)(F)F)c(=S)[nH]1 [Example 23, 9-[2-[bis(2,2,2-trifluoroethyl)phosphonylmethoxy]ethyl]-6-thioguanine]
- inhibition (HBV [1]): 86.1%

SMILES: CC(=O)OCCOP(=O)(COCCn1cnc2c(N)ncnc21)OCCOC(C)=O [Example 17, 9-[[2-bis(2-acetoxyethyl)phosphonylmethoxy]ethyl]adenine]
- inhibition (HBV [1]): 66.2%
- CC50 [2]: > 1000 µM

SMILES: Nc1c2ncn(CCOCP(=O)(OCC(F)(F)F)OCC(F)(F)F)c2nc[n+]1[O-] [Example 22]
- inhibition (HBV [1]): 76.2%
- inhibition at 300 mg/kg (HBV [3]): 15.2%

SMILES: Nc1nc(N)c2nnn(CCOCP(=O)(OCC(F)(F)F)OCC(F)(F)F)c2n1 [Example 5, 9-[2-[bis(2,2,2-trifluoroethyl)phosphonylmethoxy]ethyl]-8-aza-2,6-diaminopurine]
- inhibition (HBV [1]): 97.2%
- inhibition at 300 mg/kg (HBV [3]): 87.2%

SMILES: Nc1ncnc2c1ncn2CCOCP(=O)(O)O [PMEA, 9-(2-phosphonylmethoxy)ethyladenine]
- inhibition at 1000 mg/kg (HBV [4]; HB611, po, 1 h): 35.5%
- reported to be effective on herpes simplex virus type-I [5]: effective
- reported to be effective on herpes simplex virus type-II [6]: effective
- reported to be effective on human immunodeficiency virus [7]: effective
- reported to be effective on hepatitis B virus (hepatitis B virus): effective

SMILES: Nc1nc2ncn(CCOCP(=O)(OCC(F)(F)F)OCC(F)(F)F)c2c(=O)[nH]1 [Example 21, 7-[2-[bis(2,2,2-trifluoroethyl)phosphonylmethoxy]ethyl]guanine]
- inhibition (HBV [1]): 71.3%

SMILES: CC(=O)NCCOP(=O)(COCCn1cnc2c(N)ncnc21)OCCNC(C)=O [Reference Example 1, 9-[[2-bis(2-acetamidethyl)phosphonylmethoxy]ethyl]adenine, reference compound]
- CC50 [2]: > 1000 µM
- inhibition at 500 mg/kg (HBV [4]; [8]): 0%

SMILES: Nc1ncnc2c1ncn2CCOCP(=O)(OCCOc1ccccc1)OCCOc1ccccc1 [Example 15, 9-[[2-bis(2-phenoxyethyl)phosphonylmethoxy]ethyl]adenine]
- inhibition (HBV [1]): 59.7%
- CC50 [2]: 174 µM
- inhibition at 500 mg/kg (HBV [4]; [8]): 38.5%

SMILES: Nc1nc2c(ncn2CCOCP(=O)(OCC(F)(F)F)OCC(F)(F)F)c(=O)[nH]1 [Example 20]
- inhibition (HBV [1]): 99.9%
- inhibition at 300 mg/kg (HBV [3]): 99.9%

SMILES: Nc1nc(N)c2ncn(CCOCP(=O)(OCC(F)(F)F)OCC(F)(F)F)c2n1 [Example 2, 9-[2-[bis(2,2,2-trifluoroethyl)phosphonylmethoxy]ethyl]-2,6-diaminopurine]
- inhibition (HBV [1]): 99.9%
- CC50 [2]: 840 µM
- inhibition at 1000 mg/kg (HBV [4]; [9]): 71.9%

SMILES: COP(=O)(COCCn1cnc2c(N)nc(N)nc21)OCC(F)(F)F (centres unmarked) [Example 13, 9-[2-[methyl(2,2,2-trifluoloethyl)phosphonylmethoxy]ethyl]-2,6-diaminopurine]
- CC50 [2]: > 1000 µM
- inhibition at 1000 mg/kg (HBV [4]; HB611, po, 1 h): 77.7%

SMILES: Cc1ccc(Sc2nc(N)nc3c2ncn3CCOCP(=O)(OCC(F)(F)F)OCC(F)(F)F)cc1 [Example 24, 9-[2-[bis(2,2,2-trifluoroethyl)phosphonylmethoxy]ethyl]-2-amino-6-p-toluylthiopurine]
- inhibition (HBV [1]): 99.9%

SMILES: Nc1ncnc2c1ncn2CCOCP(=O)(OCCO)OCCO [Reference Example 2, 9-[[2-bis(2-hydroxyethyl)phosphonylmethoxy]ethyl]adenine, reference compound]
- inhibition (HBV [1]): 31%
- CC50 [2]: > 1000 µM
- inhibition at 500 mg/kg (HBV [4]; [8]): 0%

SMILES: Cc1ccc(Sc2nc(O)nc3c2ncn3CCOCP(=O)(OCC(F)(F)F)OCC(F)(F)F)cc1 [Example 25, 9-[2-[bis(2,2,2-trifluoroethyl)phosphonylmethoxy]ethyl]-2-hydroxy-6-p-toluylthiopurine]
- inhibition (HBV [1]): 99.9%

SMILES: COP(=O)(COCCn1cnc2c(N)ncnc21)OCC(F)(F)F (centres unmarked) [Example 12, 9-[2-[methyl(2,2,2-trifluoloethyl)phosphonylmethoxy]ethyl]adenine]
- CC50 [2]: > 1000 µM
- inhibition at 1000 mg/kg (HBV [4]; HB611, po, 1 h): 92.9%

SMILES: Nc1nc(Cl)c2c(ncn2CCOCP(=O)(OCC(F)(F)F)OCC(F)(F)F)n1 [Example 4, 7-[2-[bis(2,2,2-trifluoroethyl)phosphonylmethoxy]ethyl]-2-amino-6-chloropurine]
- inhibition at 300 mg/kg (HBV [3]): 36.3%

SMILES: Nc1ncnc2c1ncn2CCOCP(=O)(OCCOCc1ccccc1)OCCOCc1ccccc1 [Example 16, 9-[[2-bis(2-benzyloxyethyl)phosphonylmethoxy]ethyl]adenine]
- inhibition (HBV [1]): 57.8%
- CC50 [2]: 178 µM
- inhibition at 500 mg/kg (HBV [4]; [8]): 43.6%

SMILES: CCCCC(=O)OCCOP(=O)(COCCn1cnc2c(N)ncnc21)OCCOC(=O)CCCC [Example 18, 9-[[2-bis(2-valeryloxyethyl)phosphonylmethoxy]ethyl]adenine]
- inhibition (HBV [1]): 73.4%
- CC50 [2]: 47 µM
- inhibition at 500 mg/kg (HBV [4]; [8]): 61.4%

SMILES: Nc1nc(N)c2ncn(CCOCP(=O)(O)O)c2n1 [PMDAP, 9-(2-phosphonylmethoxy)ethyl-2,6-diaminopurine]
- reported to be effective on herpes simplex virus type-I [5]: effective
- reported to be effective on herpes simplex virus type-II [6]: effective
- reported to be effective on human immunodeficiency virus [7]: effective
- reported to be effective on hepatitis B virus (hepatitis B virus): effective

SMILES: Cn1c(N)nc2c(ncn2CCOCP(=O)(OCC(F)(F)F)OCC(F)(F)F)c1=O [Example 26, 9-[2-[bis(2,2,2-trifluoroethyl)phosphonylmethoxy]ethyl]-1-methylguanine]
- inhibition (HBV [1]): 99.9%

SMILES: Nc1nc(Cl)c2ncn(CCOCP(=O)(OCC(F)(F)F)OCC(F)(F)F)c2n1 [Example 3, 9-[2-[bis(2,2,2-trifluoroethyl)phosphonylmethoxy]ethyl]-2-amino-6-chloropurine]
- inhibition (HBV [1]): 99.9%
- CC50 [2]: 399 µM
- inhibition at 300 mg/kg (HBV [3]): 99.9%

SMILES: Nc1ncnc2c1ncn2CCOCP(=O)(OCC(F)(F)F)OCC(F)(F)F [Example 1, 9-[2-[bis(2,2,2-trifluoroethyl)phosphonylmethoxy]ethyl]adenine]
- inhibition (HBV [1]): 91.5%
- CC50 [2]: > 1000 µM
- inhibition at 1000 mg/kg (HBV [4]; [9]): 89.9%

SMILES: COCCOP(=O)(COCCn1cnc2c(N)ncnc21)OCCOC [Example 14]
- inhibition (HBV [1]): 55%
- CC50 [2]: > 1000 µM
- inhibition at 500 mg/kg (HBV [4]; [8]): 25.4%
